Read-outs that look alike come from different tables or passages of the source.
How the values were obtained:
Test in all cases: Test B pre-/postemergence plant response
Type in all cases: in vivo
[1] = system: pigweed (Amaranthus retroflexus); details: for pest or weed control at 16 g/ha: 16 g ai/ha; for pest or weed control at 16 g/ha / pest or weed control at 31 g/ha / pest or weed control at 62 g/ha: read-out: Plant response rating, Pigweed; for pest or weed control at 31 g/ha: 31 g ai/ha; for pest or weed control at 62 g/ha: 62 g ai/ha
From the text: (§1) Seeds of plant species selected from blackgrass (Alopecurus myosuroides), downy bromegrass (Bromus tectorum), green foxtail (Setaria viridis), Italian ryegrass (Lolium multiflorum), wheat (Triticum aestivum), wild oat (Avena fatua), deadnettle (henbit deadnettle, Lamium amplexicaule), galium (catchweed bedstraw, Galium aparine), bermudagrass (Cynodon dactylon), Surinam grass (Brachiaria decumbens), cocklebur (Xanthium strumarium), corn (Zea mays), large crabgrass (Digitaria sanguinalis), woolly cupgrass (Eriochloa villosa), giant foxtail (Setaria faberii), goosegrass (Eleusine indica), johnsongrass (Sorghum halepense), kochia (Kochia scoparia), lambsquarters (Chenopodium album), morningglory (Ipomoea coccinea), nightshade (eastern black nightshade, Solanum ptycanthum), yellow nutsedge (Cyperus esculentus), pigweed (Amaranthus retroflexus), ragweed (common ragweed, Ambrosia elatior), Russian thistle (Salsola kali), soybean (Glycine max), sunflower (common oilseed sunflower, Helianthus annuus) and velvetleaf (Abutilon theophrasti) were planted into a blend of loam soil and sand and treated preemergence with test compounds formulated in a non-phytotoxic solvent mixture which included a surfactant.
(§2) At the same time, plants selected from these crop and weed species and also winter barley (Hordeum vulgare), canarygrass (Phalaris minor), chickweed (Stellaria media) and windgrass (Apera spica-venti) were planted in pots containing Redi-Earth® planting medium (Scotts Company, 14111 Scottslawn Road, Marysville, Ohio 43041) comprising spaghnum peat moss, vermiculite, wetting agent and starter nutrients and treated with postemergence applications of some of the test chemicals formulated in the same manner. Plants ranged in height from 2 to 18 cm (1- to 4-leaf stage) for postemergence treatments.
(§3) Treated plants and controls were maintained in a greenhouse for 13 to 15 days, after which time all treated plants were visually evaluated and compared to controls. Plant response ratings, summarized in Table B, are based on a scale of 0 to 100 where 0 is no effect and 100 is complete control. A dash (-) response means no test result.

[2] = system: goosegrass (Eleusine indica); details: for pest or weed control at 16 g/ha: 16 g ai/ha; for pest or weed control at 16 g/ha / pest or weed control at 31 g/ha / pest or weed control at 62 g/ha: read-out: Plant response rating, Goosegrass; for pest or weed control at 31 g/ha: 31 g ai/ha; for pest or weed control at 62 g/ha: 62 g ai/ha
From the text: as §1, §2, §3

soybean (Glycine max) = details: for plant injury at 31 g/ha: 31 g ai/ha, scale 0 to 100 (0 no effect, 100 complete control); for plant injury at 62 g/ha: 62 g ai/ha
From the text: as §1, §2, §3

corn (Zea mays) = details: for Corn plant response rating (crop injury, 0 = no effect, 100 = complete kill) at 16 g/ha: 16 g ai/ha; for Corn plant response rating (crop injury, 0 = no effect, 100 = complete kill) at 31 g/ha: 31 g ai/ha; for Corn plant response rating (crop injury, 0 = no effect, 100 = complete kill) at 62 g/ha: 62 g ai/ha
From the text: as §1, §2, §3

[3] = system: giant foxtail (Setaria faberii); details: for pest or weed control at 16 g/ha: 16 g ai/ha; for pest or weed control at 16 g/ha / pest or weed control at 31 g/ha / pest or weed control at 62 g/ha: read-out: Plant response rating, Foxtail, Giant; for pest or weed control at 31 g/ha: 31 g ai/ha; for pest or weed control at 62 g/ha: 62 g ai/ha
From the text: as §1, §2, §3

[4] = system: downy bromegrass (Bromus tectorum); details: for pest or weed control at 16 g/ha: 16 g ai/ha; for pest or weed control at 16 g/ha / pest or weed control at 31 g/ha / pest or weed control at 62 g/ha: read-out: Plant response rating, Bromegrass, Downy; for pest or weed control at 31 g/ha: 31 g ai/ha; for pest or weed control at 62 g/ha: 62 g ai/ha
From the text: as §1, §2, §3

[5] = system: green foxtail (Setaria viridis); details: for pest or weed control at 16 g/ha: 16 g ai/ha; for pest or weed control at 16 g/ha / pest or weed control at 31 g/ha / pest or weed control at 62 g/ha: read-out: Plant response rating, Foxtail, Green; for pest or weed control at 31 g/ha: 31 g ai/ha; for pest or weed control at 62 g/ha: 62 g ai/ha
From the text: as §1, §2, §3

[6] = system: bermudagrass (Cynodon dactylon); details: for pest or weed control at 16 g/ha: 16 g ai/ha; for pest or weed control at 31 g/ha: 31 g ai/ha; for pest or weed control at 62 g/ha: 62 g ai/ha
From the text: as §1, §2, §3

[7] = Amaranthus retroflexus, pre-emergence, Preemergence, scale 0 to 100 (0 no effect, 100 complete control)
[8] = Preemergence, 125 g ai/ha, 0 to 100 scale
[9] = Eleusine indica, pre-emergence, Preemergence, scale 0 to 100 (0 no effect, 100 complete control)
[10] = Zea mays, pre-emergence, Preemergence, scale 0 to 100 (0 no effect, 100 complete control)
[11] = Setaria faberi, pre-emergence, Preemergence, scale 0 to 100 (0 no effect, 100 complete control)
[12] = Bromus tectorum, pre-emergence, Preemergence, scale 0 to 100 (0 no effect, 100 complete control)
[13] = Setaria viridis, pre-emergence, Preemergence, scale 0 to 100 (0 no effect, 100 complete control)
[14] = Cynodon dactylon, pre-emergence, Preemergence, scale 0 to 100 (0 no effect, 100 complete control), read-out: Plant response rating, Bermudagrass

O=C1CCCC(O)=C1C(=O)c1cnc(-c2ccccc2)n(-c2ccccc2)c1=O [Compound 2, 5-[(2-hydroxy-6-oxo-1-cyclohexen-1-yl)carbonyl]-2,3-diphenyl-4(3H)-pyrimidinone]
pest or weed control at 16 g/ha ([1]; Amaranthus retroflexus, post-emergence, Postemergence, 0 to 100 scale): 70%
pest or weed control at 31 g/ha ([1]; Amaranthus retroflexus, post-emergence, Postemergence, scale 0 to 100 (0 no effect, 100 complete control)): 85%
pest or weed control at 62 g/ha ([1]; Amaranthus retroflexus, post-emergence, Postemergence, scale 0 (no effect) to 100 (complete control), 13 to 15 days): 90%
pest or weed control at 125 g/ha ([1]; Amaranthus retroflexus, post-emergence, Postemergence, 125 g ai/ha, visual rating after 13 to 15 days, scale 0 (no effect) to 100 (complete control)): 95%
pest or weed control at 16 g/ha [1, 7]: 98%
pest or weed control at 31 g/ha [1, 7]: 100%
pest or weed control at 62 g/ha [1, 7]: 100%
Pigweed plant response rating [1, 8]: 100
pest or weed control at 16 g/ha ([2]; Eleusine indica, post-emergence, Postemergence, 0 to 100 scale): 80%
pest or weed control at 31 g/ha ([2]; Eleusine indica, post-emergence, Postemergence, scale 0 to 100 (0 no effect, 100 complete control)): 80%
pest or weed control at 62 g/ha ([2]; Eleusine indica, post-emergence, Postemergence, scale 0 (no effect) to 100 (complete control), 13 to 15 days): 90%
pest or weed control at 125 g/ha ([2]; Eleusine indica, post-emergence, Postemergence, 125 g ai/ha, visual rating after 13 to 15 days, scale 0 (no effect) to 100 (complete control)): 95%
pest or weed control at 16 g/ha [2, 9]: 0%
pest or weed control at 31 g/ha [2, 9]: 85%
pest or weed control at 62 g/ha ([2]; Eleusine indica, pre-emergence, Preemergence, scale 0 to 100, 0 no effect, 100 complete control): 100%
Goosegrass plant response rating [2, 8]: 100
plant injury at 16 g/ha (soybean (Glycine max); Glycine max, post-emergence, 16 g ai/ha, Postemergence, 0 to 100 scale, read-out: Plant response rating, Soybean): 75%
plant injury at 31 g/ha (soybean (Glycine max); Glycine max, post-emergence, Postemergence, read-out: Plant response rating, Soybean): 80%
plant injury at 62 g/ha (soybean (Glycine max); Glycine max, post-emergence, Postemergence, scale 0 (no effect) to 100 (complete control), 13 to 15 days, read-out: Plant response rating, Soybean): 90%
plant injury at 125 g/ha (soybean (Glycine max); Glycine max, post-emergence, Postemergence, 125 g ai/ha, visual rating after 13 to 15 days, scale 0 (no effect) to 100 (complete control)): 95%
plant injury at 31 g/ha (soybean (Glycine max); Glycine max, pre-emergence, Preemergence, read-out: Plant response rating, Soybean): 15%
plant injury at 62 g/ha (soybean (Glycine max); Glycine max, pre-emergence, Preemergence, scale 0 to 100, 0 no effect, 100 complete control, read-out: Plant response rating, Soybean): 60%
Soybean plant response rating (soybean (Glycine max); [8]): 70
Corn plant response rating (corn (Zea mays); [8]): 0
Corn plant response rating (crop injury, 0 = no effect, 100 = complete kill) at 16 g/ha (corn (Zea mays); Zea mays, post-emergence, Postemergence, 0 to 100 scale): 15%
Corn plant response rating (crop injury, 0 = no effect, 100 = complete kill) at 31 g/ha (corn (Zea mays); Zea mays, post-emergence, Postemergence, scale 0 to 100 (0 no effect, 100 complete control)): 15%
Corn plant response rating (crop injury, 0 = no effect, 100 = complete kill) at 62 g/ha (corn (Zea mays); Zea mays, post-emergence, Postemergence, scale 0 (no effect) to 100 (complete control), 13 to 15 days): 25%
Corn plant response rating (crop injury, 0 = no effect, 100 = complete kill) at 125 g/ha (corn (Zea mays); Zea mays, post-emergence, Postemergence, 125 g ai/ha, visual rating after 13 to 15 days, scale 0 (no effect) to 100 (complete control)): 35%
Corn plant response rating (crop injury, 0 = no effect, 100 = complete kill) at 16 g/ha (corn (Zea mays); [10]): 0%
Corn plant response rating (crop injury, 0 = no effect, 100 = complete kill) at 31 g/ha (corn (Zea mays); [10]): 0%
Corn plant response rating (crop injury, 0 = no effect, 100 = complete kill) at 62 g/ha (corn (Zea mays); Zea mays, pre-emergence, Preemergence, scale 0 to 100, 0 no effect, 100 complete control): 0%
Foxtail, Giant plant response rating [3, 8]: 70
pest or weed control at 16 g/ha ([3]; Setaria faberi, post-emergence, Postemergence, 0 to 100 scale): 70%
pest or weed control at 31 g/ha ([3]; Setaria faberi, post-emergence, Postemergence, scale 0 to 100 (0 no effect, 100 complete control)): 85%
pest or weed control at 62 g/ha ([3]; Setaria faberi, post-emergence, Postemergence, scale 0 (no effect) to 100 (complete control), 13 to 15 days): 85%
pest or weed control at 125 g/ha ([3]; Setaria faberi, post-emergence, Postemergence, 125 g ai/ha, visual rating after 13 to 15 days, scale 0 (no effect) to 100 (complete control)): 85%
pest or weed control at 16 g/ha [3, 11]: 0%
pest or weed control at 31 g/ha [3, 11]: 15%
pest or weed control at 62 g/ha ([3]; Setaria faberi, pre-emergence, Preemergence, scale 0 to 100, 0 no effect, 100 complete control): 20%
pest or weed control at 16 g/ha ([4]; Bromus tectorum, post-emergence, Postemergence, 0 to 100 scale): 20%
pest or weed control at 31 g/ha ([4]; Bromus tectorum, post-emergence, Postemergence, scale 0 to 100 (0 no effect, 100 complete control)): 35%
pest or weed control at 62 g/ha ([4]; Bromus tectorum, post-emergence, Postemergence, scale 0 (no effect) to 100 (complete control), 13 to 15 days): 60%
pest or weed control at 125 g/ha ([4]; Bromus tectorum, post-emergence, Postemergence, 125 g ai/ha, visual rating after 13 to 15 days, scale 0 (no effect) to 100 (complete control)): 80%
pest or weed control at 16 g/ha [4, 12]: 0%
pest or weed control at 31 g/ha [4, 12]: 0%
pest or weed control at 62 g/ha ([4]; Bromus tectorum, pre-emergence, Preemergence, scale 0 to 100, 0 no effect, 100 complete control): 0%
Bromegrass, Downy plant response rating [4, 8]: 5
Foxtail, Green plant response rating [5, 8]: 60
pest or weed control at 16 g/ha ([5]; Setaria viridis, post-emergence, Postemergence, 0 to 100 scale): 50%
pest or weed control at 31 g/ha ([5]; Setaria viridis, post-emergence, Postemergence, scale 0 to 100 (0 no effect, 100 complete control)): 75%
pest or weed control at 62 g/ha ([5]; Setaria viridis, post-emergence, Postemergence, scale 0 (no effect) to 100 (complete control), 13 to 15 days): 90%
pest or weed control at 125 g/ha ([5]; Setaria viridis, post-emergence, Postemergence, 125 g ai/ha, visual rating after 13 to 15 days, scale 0 (no effect) to 100 (complete control)): 100%
pest or weed control at 16 g/ha [5, 13]: 0%
pest or weed control at 31 g/ha [5, 13]: 0%
pest or weed control at 62 g/ha ([5]; Setaria viridis, pre-emergence, Preemergence, scale 0 to 100, 0 no effect, 100 complete control): 5%
pest or weed control at 16 g/ha ([6]; Cynodon dactylon, post-emergence, Postemergence, 0 to 100 scale, read-out: Plant response rating, Bermudagrass): 40%
pest or weed control at 31 g/ha ([6]; Cynodon dactylon, post-emergence, Postemergence, scale 0 to 100 (0 no effect, 100 complete control), read-out: Plant response rating, Bermudagrass): 80%
pest or weed control at 62 g/ha ([6]; Cynodon dactylon, post-emergence, Postemergence, scale 0 (no effect) to 100 (complete control), 13 to 15 days, read-out: Plant response rating, Bermudagrass): 85%
pest or weed control at 125 g/ha ([6]; Cynodon dactylon, post-emergence, Postemergence, 125 g ai/ha, scale 0 to 100 (0 no effect, 100 complete control), 13 to 15 days, read-out: Plant response rating, Bermudagrass): 90%
pest or weed control at 16 g/ha [6, 14]: 25%
pest or weed control at 31 g/ha [6, 14]: 98%
pest or weed control at 62 g/ha ([6]; Cynodon dactylon, pre-emergence, Preemergence, scale 0 to 100, 0 no effect, 100 complete control, read-out: Plant response rating, Bermudagrass): 100%
Bermudagrass plant response rating [6, 8]: 100

From patent publication US8952024B2, “Herbicidal pyrimidone derivatives” (E I du Pont de Nemours and Company, priority 2009, dated 2015)
